{"source": "paper PMC8073907", "about": "“Peptide targeting of lysophosphatidylinositol-sensing GPR55 for osteoclastogenesis tuning” (Cell Communication and Signaling : CCS, 2021)", "molecules": {"B1": {"name": "GPR55 (protein)", "chain": "MSQPERDNCSFDSVDKLTRTLQLAVHIPTFLLGLVLNLLAIRGFSAFLKKRKLDYIATSIYMINLAVFDLLLVLSLPFKMVLPQVESPLPSFCTLVECLYFISMYGSVFTICFISLDRFLAIQYPILASHLRSPRKTFGICCIIWMLVWIGSIPIYTFHREVERYKCFHNMSDVTWSASVFFPLEIFGFLLPMGIMGFCSYRSIHILLRRPDSTEDWVQQRDTKGWVQKRACIWTIATNLVIFVVSFLPVHLGFFLQYLVRNRFILDCRMKQGISLFLQLSLCFSNINCCLDVFCYYFVIKEFRMRIKAHRPSTIKLVNQDTMVSRG"}}, "key": {"RAW264.7 cells [1]": {"tested_on": "RAW264.7 cells", "test": "RANKL-induced transcription of osteoclastogenesis markers in RAW264.7 cells (real-time PCR)", "type": "cell-based, murine", "conditions": "150 nM (0.2 µg/mL) peptide, 15 ng/mL RANKL, 72 h", "description": "Total RNA was extracted using RNeasy isolation kits, cDNAs were obtained using QuantiTect Reverse Transcription kits, and real-time PCRs were performed with QuantiTect SYBR Green PCR kits (all from Qiagen, Hilden, Germany), according to the manufacturer instructions. The primers used for the real-time PCRs and their annealing temperatures are listed in the Additional file 1: Table S1. Human hypoxanthine phosphoribosyltransferase 1 (HPRT1) or murine β2-microglobulin were followed as housekeeping genes. The real-time PCR programme consisted of an initial 15 min at 95 °C, and then 45 cycles as follows: 94 °C for 15 s, annealing temperature of each primer for 30 s, and 72 °C for 30 s. The real-time PCR machine used was a LightCycler 480 Instrument II (Roche, Indianapolis, IN, USA).\n(§1) For transient interference of Gpr55, RAW264.7 cells were plated at 6 × 10^5 cells/well in six-well plates in growth medium without antibiotics. Twenty-four hours later, the cells were transfected with 250 pmol/well non-targeting small-interfering (si)RNAs (si-NT; siGENOME siRNA Pool #2; D-001206-14; Dharmacon, Chicago, IL, USA) or Gpr55-specific siRNAs (si-GPR55; siGENOME mouse GPR55 SMART pool; M-043590-01; Dharmacon) using Lipofectamine LTX and Plus Reagent, according to the manufacturer instructions. Twenty-four hours later, the cells were plated for the different assays or for RNA extraction. The efficiency of interference was monitored by real-time PCR after 72 h of interference, using the primers listed in the Additional file 1: Table S1. β2-microglobulin was followed as a housekeeping gene.\nFor the osteoclastogenesis in-vitro assay, RAW264.7 cells were plated in differentiation medium (α-MEM with 10% heat-inactivated FBS, 2 mM L-glutamine, 100 U/mL penicillin, and 100 ug/mL streptomycin) at a density of 5 × 10^3 cells/well in 24-well plates on coverslips for morphological analysis, or at 2 × 10^4 cells/well in six-well plates for RNA extraction. Twenty-four hours later and every 48 h, the medium was replaced and the cells were treated with 15–30 ng/mL RANKL with DMSO and/or PBS as carriers, or with GPR55 antagonists/ agonists (0.5 µM ML-191, 30 µM O1918, 0.5 µM CBD, 0.5 μM CID16020046 1 µM soybean LPI, 1 μM ML-184), or with the peptides (150 nM peptide-P1; or the irrelevant peptide, Irr_P). Twenty-four hours after the last addition, the cells were fixed with 4% paraformaldehyde for morphological analyses or harvested for RNA extraction (see above)."}, "RAW264.7 cells [2]": {"tested_on": "RAW264.7 cells", "test": "Osteoclast syncytium formation (nuclei/cell)", "type": "cell-based, murine", "conditions": "150 nM (0.2 µg/mL) peptide, 72 h RANKL", "description": "as §1\nFor the evaluation of osteoclast syncytium formation, the nuclei of multinucleated cells were counted in a blinded manner using a 63 × objective, moving across the coverslip in the vertical and horizontal directions.\nFor the osteoclastogenesis in-vitro assay, RAW264.7 cells were plated in differentiation medium (α-MEM with 10% heat-inactivated FBS, 2 mM L-glutamine, 100 U/mL penicillin, and 100 ug/mL streptomycin) at a density of 5 × 10^3 cells/well in 24-well plates on coverslips for morphological analysis, or at 2 × 10^4 cells/well in six-well plates for RNA extraction. […]"}, "ssGPR55-K80A": {"tested_on": "ssGPR55-K80A", "test": "GPR55-internalisation assay, K80A mutant (FACS)", "type": "cell-based, human", "conditions": "data not shown", "from_the_text": "The construct of haemagglutinin (HA)-tagged human GPR55 in pcDNA3 (HA-GPR55) was a gift from Prof. K. Mackie, Indiana University, Bloomington, IN, USA [39], while the construct ss-3 × HA-GPR55 in pcDNA3.1 (ssGPR55) with a triple HA tag at the N-terminus and an optimised signal sequence (ss, derived from amino acids 1–33 of the human growth hormone: […]) for efficient surface expression was from Prof. A. Irving, Dundee University, UK [40]. For both constructs, mutations were introduced by site-directed mutagenesis using QuickChange kits (Stratagene, La Jolla, CA, USA), according to the manufacturer instructions. The primers for the K80A mutation were 5′-[…]-3′ and 5′-[…]-3′ (Tm, 70.6 °C), and for Q87A were 5′-[…]-3′ and 5′-[…]-3′ (Tm, 73.1 °C).\nHeLa cells were plated at 1.5 × 10^5 cells/well in six-well plates in their growth medium without antibiotics. […]\nFor the GPR55-internalisation assay, after stimulation, the HeLa cells were washed twice with cold HBSS^++, stained while adhered with the monoclonal anti-HA antibody (1:1000) in PBS plus 3% BSA for 1 h on ice, washed three times with cold PBS, incubated with the Alexa488-tagged anti-mouse antibody (1:800) in PBS plus 3% BSA for 45 min on ice. […] The collected cells were centrifuged at 300×g, suspended in PBS plus 3% BSA, and analysed by FACS."}, "human GPR55 [3]": {"tested_on": "human GPR55", "conditions": "ref [38]; cited from earlier work", "from_the_text": "GPR55 is overexpressed in several tumour cells, with GPR55 expression shown to correlate with tumour aggressiveness and GPR55 activation to promote cancer-cell proliferation both in cell culture and in xenografts in mice. Therefore, we previously attempted to identify peptides that bind to human GPR55, for innovative targeting of GPR55 for potential therapeutic and/or diagnostic applications. Osteoclasts are also among the cells with the highest expression of GPR55 [9], and as GPR55 is involved in their differentiation, its targeting might be instrument ..."}, "[4]": {"tested_on": "EHEB and DeFew cells (two human B-lymphoblastoid cell lines)", "conditions": "ref [38], cited from earlier work"}, "murine GPR55": {"target": "T1, murine GPR55 (Mus musculus, UniProt Q3UJF0)", "T1 construct": "endogenous in cells; host or cells: RAW264.7 mouse macrophages (wild-type, or treated with si-NT / si-GPR55 siRNAs)", "test": "Peptide binding to intact RAW264.7 cells (FACS)", "conditions": "FITC-Scr; si-GPR55 + siGLO relative to si-NT + siGLO; 40 µg/mL, 15 min, 37 °C", "protocol": "Wild-type or 48-h-interfered RAW264.7 cells were plated at a density of 1.2 × 10^6 cells/well in six-well plates, and the following day they were used for on-plate-binding assays, or for RNA extraction. Before peptide addition, the cells were washed twice with HBSS^++, and then incubated without or with 40 µg/mL FITC-P1 or FITC-Scr for the indicated times at 37 °C in HBSS^++ plus 0.01% faf-BSA. The incubations were stopped by three washes with PBS, detached by scraping with PBS plus 2 mM EDTA, and then suspended in PBS plus 3% BSA. Fluorescence intensity was evaluated by FACS, and reported as means of cell-associated fluorescence increases compared to cells incubated in absence of peptides.\nTo evaluate peptide-P1 specificity towards murine GPR55, RAW264.7 cells were Gpr55-interfered as above, but the duplexes were previously mixed with the double pmol amount of siGLO Red transfection indicator (Dharmacon). […] FITC-fluorescence intensity was evaluated by FACS, and reported as means of cell-associated fluorescence increases compared to cells incubated in absence of peptides."}, "[5]": {"tested_on": "GPR55-silenced HeLa cells", "test": "LPI-induced ERK1/2 and p38 phosphorylation in shGPR55-HeLa clones (Western blot)", "type": "cell-based, human", "conditions": "10 µM soybean LPI, or 1 µM ionomycin 5 min", "description": "For stable interference of GPR55, HeLa cells were plated at 1.5 × 10^5 cells/well in six-well plates in growth medium without antibiotics, and 24 h later, the cells were transfected with 1.7 µg/well OmicsLink short hairpin (sh)RNA expression clone CSHCTR001-CU6 (shCTRL) or clone HSH022476-3-CU6 (shGPR55) from GeneCopoeia (Rockville, MD, USA), using Lipofectamine 2000, according the manufacturer instructions. Forty-eight hours after transfection, HeLa clones stably expressing shRNAs were selected in growth medium containing 0.3 µg/mL puromycin. The efficiency of interference was monitored by real-time PCR using the primers listed in the Additional file 1: Table S1. HPRT1 was followed as a housekeeping gene.\nTwenty-four hours after transfection (HEK293T, HeLa cells or clones) or 72 h after interference (RAW264.7 cells), the cells were washed twice with HBSS^++, serum deprived (HEK293T cells for 4 h in DMEM; HeLa cells and clones for 2 h in MEM plus 2 mM glutamine and 25 mM HEPES; RAW264.7 cells for 2 h in DMEM), washed once again with HBSS^++, incubated in stimulation buffer (HBSS^++ with 10 mM HEPES, 0.4% faf-BSA for HEK293T cells; HBSS^++ with 25 mM HEPES and 0.01% faf-BSA for HeLa cells, clones, and RAW264.7 cells) in the absence or presence of stimuli, at 37 °C for the indicated times. Incubations were terminated by washing the cells twice with cold HBSS^++, and the analyses were performed as reported below.\nCell lysates were obtained by scraping the cells into phospho-lysis buffer: 50 mM Tris–HCl, pH 7.5, 100 mM NaCl, 5 mM EDTA, 1% Triton X-100, 50 mM NaF, 40 mM β-glycerophosphate, 200 µM sodium orthovanadate, plus protease and phosphatase inhibitors (Roche). […]\nProtein lysates were subjected to SDS-PAGE, and after electrophoresis, the proteins were transferred to a nitrocellulose membrane (PerkinElmer Life Science, Boston, MA, USA). […] The membranes were then washed twice with T-TBS and once with TBS for 5 min, and the signals were detected by ECL (Amersham Pharmacia, Piscataway, NJ, USA). […]"}, "human GPR55 [6]": {"target": "human GPR55", "conditions": "ref [38]; read-out: affinity towards human GPR55; cited from earlier work"}, "[7]": {"target": "peptide-P1 (synthetic construct)", "conditions": "cited from earlier work"}, "peptide-P1": {"target": "T2, peptide-P1 (synthetic construct, disulfide 1-9 (inferred))", "T2 chain": "{FITC-Ahx}-CKKNSPTLC", "test": "FACS binding of FITC-peptide to RAW264.7 cells"}}, "note": "Read-outs that look alike come from different tables or passages of the source. Bridge positions count the residues as written; N and C are the ends. Ends that are not written are not given here. Peptide text beside a SMILES is read from it. * marks the point of attachment. FITC = O=C1OC2(c3ccc(O)cc3Oc3cc(O)ccc32)c2ccc(NC(=S)*)cc21; Ahx = NCCCCCC(=O)O"}
{"molecule": "CKKNSPTLC (disulfide 1-9 (inferred)) [peptide-P1]", "values": [{"measurement": "inhibition of osteoclast maturation (five differentiation markers)", "setting": "RAW264.7 cells [1]", "value": "significant inhibition of osteoclast maturation"}, {"measurement": "reduction of RANKL-induced Cathepsin-k mRNA by peptide", "setting": "RAW264.7 cells [1]; three independent experiments", "value": 40, "unit": "%"}, {"measurement": "reduction of RANKL-induced Ctr mRNA by peptide", "setting": "RAW264.7 cells [1]; three independent experiments", "value": 35, "unit": "%"}, {"measurement": "reduction of RANKL-induced Mmp-9 mRNA by peptide", "setting": "RAW264.7 cells [1]; three independent experiments", "value": 50, "unit": "%"}, {"measurement": "reduction of RANKL-induced Nfatc1 mRNA by peptide", "setting": "RAW264.7 cells [1]; three independent experiments", "value": 30, "unit": "%"}, {"measurement": "reduction of RANKL-induced Trap mRNA by peptide", "setting": "RAW264.7 cells [1]; three independent experiments", "value": 35, "unit": "%"}, {"measurement": "effect on RANKL-induced osteoclast syncytium formation, peptide", "setting": "RAW264.7 cells [2]", "value": "did not have any significant effects"}, {"measurement": "regulation of wild-type and GPR55-K80A mutant internalisation", "setting": "ssGPR55-K80A", "value": "comparable regulation of both wild-type and GPR55-K80A mutant internalisation"}, {"measurement": "competition with LPI action", "setting": "human GPR55 [3]", "value": "did not compete with LPI action"}, {"measurement": "human GPR55 internalisation", "setting": "human GPR55 [3]", "value": "inducing human GPR55 internalisation in a β-arrestin–independent manner"}, {"measurement": "inhibition of GPR55-dependent proliferation", "setting": "[4]", "value": "inhibited GPR55-dependent proliferation of two human B-lymphoblastoid cell lines"}, {"measurement": "inhibition of GPR55-dependent proliferation", "setting": "[4]; listed as Peptide-P1", "value": "inhibit GPR55-dependent proliferation of EHEB and DeFew cells"}]}
{"molecule": "KCLTSNCPK (disulfide 2-7 (inferred)) [FITC-Scr, FITC-conjugated scrambled (…) peptide]", "values": [{"measurement": "effect of Gpr55 interference on binding", "setting": "murine GPR55", "value": "not significantly affected by Gpr55 interference"}]}
{"molecule": "C[C@H](CCC(=O)O)C[C@H](C)C[C@H](C)C(=O)/C=C(\\O)[C@H](C)C[C@H](C)C/C=C/[C@@H](C)[C@@H](O)[C@@H](C)[C@@H](O)C[C@@H]1CC[C@@](C)([C@H]2CC[C@@](C)([C@@H](C)O)O2)O1", "note": "[ionomycin]", "values": [{"measurement": "ERK1/2 and p38 activation", "setting": "[5]", "value": "still activated these pathways"}]}
{"molecule": "CC(C)C[C@@H]1NC(=O)[C@H]([C@@H](C)O)NC(=O)[C@@H]2CCCN2C(=O)[C@H](CO)NC(=O)[C@H](CC(N)=O)NC(=O)[C@H](CCCCN)NC(=O)[C@H](CCCCN)NC(=O)[C@@H](NC(=O)CCCCCNC(=S)Nc2ccc3c(c2)C(=O)OC32c3ccc(O)cc3Oc3cc(O)ccc32)CSSC[C@@H](C(=O)O)NC1=O", "note": "[FITC-P1] ({FITC-Ahx}-CKKNSPTLC-OH; disulfide 1-9; N-terminus and C-terminus assumed)", "values": [{"measurement": "Kd", "setting": "human GPR55 [6]", "value": 20, "unit": "µM"}]}
{"molecule": "GPR55 (from UniProt Q9Y2T6)", "values": [{"measurement": "Kd", "setting": "[7]", "value": 20, "unit": "µM"}]}
{"molecule": "B1", "values": [{"measurement": "Kd", "setting": "peptide-P1", "value": 22.7, "unit": "µM"}]}
